The text below walks through data of patent US20240124451A1, “PHTHALAZINE DERIVATIVES USEFUL AS INHIBITORS OF NOD-LIKE RECEPTOR PROTEIN 3” (Merck Sharp & Dohme LLC, priority 2022, published 2024).

The experiment deals with T1, NLRP3 inflammasome (Homo sapiens, UniProt Q96P20).
T1 construct: host or cells: THP-1 human monocytic cells, PMA-treated, stimulated with gramicidin
In words: ASC-SPECK formation in THP-1 cells after gramicidin stimulation (NLRP3 inflammasome activation). The format is cell-based. Particulars: PMA-treated human monocytic THP-1 cells, compound 1 h before 12.5 ug/ml gramicidin, 3 h, ASC SPECK imaging; read-out: EC50 (nM) for Examples that inhibit NLRP3 inflammasome activation. Here is the method: The ability of compounds to inhibit NLRP3 inflammasome activation was determined in vitro by monitoring formation of the ASC-SPECK in human monocytic THP-1 cells after stimulation. THP-1 cells (ATCC catalog #TIB-202) were maintained in complete growth media containing Roswell Park Memorial Institute RPMI (ATCC catalog #30-2001), 10% heat inactivated fetal bovine serum, 1× penicillin/streptomycin and 0.05 mM 2-mercaptoethanol. At the start of the assay, undifferentiated THP-1 cells were plated at a density of 20,000 cells per well in a 384-well plate (Poly-D-lysine coated Cell Carrier Ultra microplate, Perkin Elmer catalog #6057500) in complete growth media supplemented with 10 ng/ml phorbol 12-myristate 13-acetate (PMA; Sigma catalog #P8139), and then incubated overnight. The next day, media was replaced with assay media [RPMI (Gibco catalog #11875-093), 0.01% bovine serum albumin (BSA)]. Compounds were serially diluted in DMSO and then added to wells one hour prior to the addition of 12.5 ug/ml Gramicidin (Enzo Lifescience, catalog #ALX-350-233-M005). All incubations were carried out at 37° C. (5% CO2/95% air). Following a 3-hour treatment with gramicidin, cells are fixed with 4% paraformaldehyde and stored at 4° C. until immunofluorescence staining.
Immunofluorescence staining: Anti-ASC antibody (MBL catalog #D086-3) was desalted and labeled with Alexa 488 antibody labeling kit (Thermo catalog #A20181) prior to use as described below. After fixation, the following steps were carried out at room temperature. Cells were first permeabilized with 0.3% Triton X-100 in phosphate-buffered saline (PBS) for 15 minutes and then incubated in blocking buffer containing 5% goat serum, 0.3% tween-20 and 0.03% sodium azide in PBS for 1 hour. Cells were stained with a mixture of ASC-Alexa 488 antibody (diluted 1:200 in blocking buffer) and nuclear stain DRAQ5 (1:5000 in blocking buffer, Thermo catalog #62251) in blocking buffer for 1 hour. Following a wash with 0.3% Tween-20 in PBS, plates were imaged with an Opera Phenix High Content Screening System. The number of DRAQ5 positive cells containing ASC SPECKS were quantified in each well.
Data analysis: EC50 values were calculated by standard curve-fitting analysis using an internally developed program in TIBCO Spotfire software.

Broadly, the EC50 is the concentration that produces a half-maximal response.

T1 sequence (Q96P20 whole entry): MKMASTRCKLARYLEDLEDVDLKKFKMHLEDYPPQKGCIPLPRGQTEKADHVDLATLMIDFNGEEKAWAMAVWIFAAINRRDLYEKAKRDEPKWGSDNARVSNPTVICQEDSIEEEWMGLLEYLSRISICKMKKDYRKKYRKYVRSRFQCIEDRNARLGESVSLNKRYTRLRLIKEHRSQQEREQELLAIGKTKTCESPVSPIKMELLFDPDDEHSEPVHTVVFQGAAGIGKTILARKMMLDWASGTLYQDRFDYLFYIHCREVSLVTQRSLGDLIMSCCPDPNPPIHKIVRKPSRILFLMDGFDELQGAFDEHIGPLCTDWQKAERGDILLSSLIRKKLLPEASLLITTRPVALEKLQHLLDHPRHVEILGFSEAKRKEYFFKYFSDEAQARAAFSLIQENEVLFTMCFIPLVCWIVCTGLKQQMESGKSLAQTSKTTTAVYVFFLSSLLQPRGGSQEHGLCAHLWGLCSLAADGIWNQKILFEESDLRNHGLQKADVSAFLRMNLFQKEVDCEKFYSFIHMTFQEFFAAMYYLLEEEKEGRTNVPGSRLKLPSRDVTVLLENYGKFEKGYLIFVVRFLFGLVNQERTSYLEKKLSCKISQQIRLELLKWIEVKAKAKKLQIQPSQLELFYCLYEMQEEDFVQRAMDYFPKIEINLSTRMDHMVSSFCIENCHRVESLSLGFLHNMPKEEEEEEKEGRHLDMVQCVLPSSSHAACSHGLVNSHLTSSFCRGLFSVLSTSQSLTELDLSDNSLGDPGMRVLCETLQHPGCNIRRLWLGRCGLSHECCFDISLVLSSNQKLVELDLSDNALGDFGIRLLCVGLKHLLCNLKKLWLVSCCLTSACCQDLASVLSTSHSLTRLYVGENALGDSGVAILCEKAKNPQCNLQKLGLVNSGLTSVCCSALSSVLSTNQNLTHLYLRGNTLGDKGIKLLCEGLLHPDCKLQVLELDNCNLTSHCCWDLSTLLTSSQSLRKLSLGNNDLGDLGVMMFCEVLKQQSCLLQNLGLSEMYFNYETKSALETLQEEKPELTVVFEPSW

Regarding `CC(=O)N1CCCC12CCN(c1nnc(-c3ccc(C(F)(F)F)cc3O)c3cccnc13)CC2` [Example 34, 1-(8-(5-(2-hydroxy-4-(trifluoromethyl)phenyl)pyrido [2,3-d]pyridazin-8-yl)-1,8-diazaspiro[4.5]decan-1-yl)ethan-1-one], the EC50 was 1510 nM.
Take `Oc1cc(C(F)(F)F)ccc1-c1nnc(N2C[C@@H]3[C@H](C2)C3(F)F)c2ncccc12` [Example 41, 2-(8-(6,6-difluoro-3-azabicyclo[3.1.0]hexan-3-yl)pyrido[2,3-d]pyridazin-5-yl)-5-(trifluoromethyl)phenol]: the EC50 turned out to be 999 nM.
With `C[C@@H]1CN(c2nnc(-c3ccc(C(F)(F)F)cc3O)c3cnncc23)C[C@H](C)[C@]1(C)O` [Example 13, (3S,4s,5R)-1-(4-(2-hydroxy-4-(trifluoromethyl)phenyl)pyridazino [4,5-d]pyridazin-1-yl)-3,4,5-trimethylpiperidin-4-ol], the EC50 is 264 nM.
In the case of `CN(C)CC1(O)CCN(c2nnc(-c3ccc(C(F)(F)F)cc3O)c3cccnc23)C1` (racemic) [Example 46, (R and S)-3-((dimethylamino)methyl)-1-(5-(2-hydroxy-4-(trifluoromethyl)phenyl)pyrido [2,3-d]pyridazin-8-yl)pyrrolidin-3-ol] it was 831 nM; in that of `C[C@@H]1CN(c2nnc(-c3ccc(C(F)(F)F)cc3OC(F)F)c3cccnc23)C[C@H](C)O1` [Example 3, (cis)-4-(5-(2-(difluoromethoxy)-4-(trifluoromethyl)phenyl)pyrido[2,3-d]pyridazin-8-yl)-2,6-dimethylmorpholine], 891 nM; in that of `Oc1cc(C(F)(F)F)ccc1-c1nnc(N2CCC(O)(c3ccccc3)C2)c2ncccc12` (racemic) [Example 38, (R and S)-1-(5-(2-hydroxy-4-(trifluoromethyl)phenyl)pyrido [2,3-d]pyridazin-8-yl)-3-phenylpyrrolidin-3-ol], 1600 nM.
On to `Oc1cc(C(F)(F)F)ccc1-c1nnc(N2CCC3(CCCO3)CC2)c2ncccc12` [Example 30, 2-(8-(1-oxa-8-azaspiro[4.5]decan-8-yl)pyrido[2,3-d]pyridazin-5-yl)-5-(trifluoromethyl)phenol], for which the EC50 was found to be 1270 nM.
The value for `C[C@@H]1CN(c2nnc(-c3ccc(C(F)(F)F)cc3O)c3cnccc23)C[C@H](C)[C@H]1O` [Example 19, (3S,4r,5R)-1-(4-(2-hydroxy-4-(trifluoromethyl)phenyl)pyrido[3,4-d]pyridazin-1-yl)-3,5-dimethylpiperidin-4-ol] was 68 nM; that for `Oc1cc(C(F)(F)F)ccc1-c1nnc(N2CCC(O)(C(F)F)C2)c2ncccc12` (racemic) [Example 28, (R and S)-3-(difluoromethyl)-1-(5-(2-hydroxy-4-(trifluoromethyl)phenyl)pyrido [2,3-d]pyridazin-8-yl)pyrrolidin-3-ol] was 447 nM; that for `Cc1ccc2c(-c3ccc(C(F)(F)F)cc3O)nnc(N3CC[C@](C)(O)C3)c2n1` [Example 10, (S)-1-(5-(2-hydroxy-4-(trifluoromethyl)phenyl)-2-methylpyrido[2,3-d]pyridazin-8-yl)-3-methylpyrrolidin-3-ol] was 60 nM.
For the compound `Oc1cc(C(F)(F)F)ccc1-c1nnc(N2CCC3(CCCO3)C2)c2ncccc12` (racemic) [Example 29, (R and S)-2-(8-(1-oxa-7-azaspiro[4.4]nonan-7-yl)pyrido[2,3-d]pyridazin-5-yl)-5-(trifluoromethyl)phenol], the EC50 stood at 353 nM.
In the case of `Oc1cc(C(F)(F)F)ccc1-c1nnc(N2CC(O)C(F)(F)C2)c2ncccc12` (racemic) [Example 43, (R and S)-4,4-difluoro-1-(5-(2-hydroxy-4-(trifluoromethyl)phenyl)pyrido [2,3-d]pyridazin-8-yl)pyrrolidin-3-ol] it was 482 nM.
In the case of `C[C@]1(O)CCN(c2nnc(-c3ccc(C(F)(F)F)cc3O)c3cccnc23)C1` [Example 22, (S)-1-(5-(2-hydroxy-4-(trifluoromethyl)phenyl)pyrido[2,3-d]-pyridazin-8-yl)-3-methylpyrrolidin-3-ol], the concentration giving a half-maximal response (EC50) worked out at 124 nM.
Consider `Oc1cc(C(F)(F)F)ccc1-c1nnc(N2CCC(O)(C3CC3)C2)c2ncccc12` (racemic) [Example 45, (R and S)-3-cyclopropyl-1-(5-(2-hydroxy-4-(trifluoromethyl)phenyl)pyrido [2,3-d]pyridazin-8-yl)pyrrolidin-3-ol], for which the EC50 is 1180 nM.
The value for `Cc1cccc2c(N3C[C@@H](C)O[C@@H](C)C3)nnc(-c3ccc(C(F)(F)F)cc3O)c12` [Example 15, 2-(4-((cis)-2,6-dimethylmorpholino)-8-methylphthalazin-1-yl)-5-(trifluoromethyl)phenol] was 3680 nM.
